# According to PubChem BioAssay AID624374 (Broad Institute, 2012):
# Inconclusive results are not listed. Activity calls are given as the source filed them. How the calls were made is not given here.
# Experiment: HEK293 cell viability, dose response, counter-screen for EBV LMP1 inhibitor project, dry powder, set 2 (AID 624374)
# Conditions: HEK293 viability counterscreen, plate reader; at 35 µM (top of the series)
row,Structure (SMILES),"activity change, negative = viability loss"
1,C[C@H]1CN([C@@H](C)CO)C(=O)c2c(c3ccccc3n2C)-c2ccccc2CO[C@H]1CN(C)C(=O)Nc1ccc(F)cc1,-8.86% (inactive)
2,C[C@H]1CN([C@@H](C)CO)C(=O)c2c(c3ccccc3n2C)-c2ccccc2CO[C@@H]1CN(C)C(=O)Nc1ccc(F)cc1,2.63% (inactive)
3,O=C(C[C@@H]1C[C@@H]2c3cc(NC(=O)c4cccnc4)ccc3O[C@@H]2[C@H](CO)O1)NCC(F)(F)F,-0.478% (inactive)
4,Cc1noc(C)c1S(=O)(=O)Nc1ccc2c(c1)C(=O)N([C@H](C)CO)C[C@@H](C)[C@@H](CN(C)Cc1ccc(C(F)(F)F)cc1)OCCCC[C@H](C)O2,-1.22% (inactive)
5,Cc1cc(C(=O)Nc2ccc3c(c2)C(=O)N(C)[C@H]2CC[C@H](CC(=O)NCc4ccc(-c5ccccc5)cc4)O[C@H]2CO3)no1,-11.4% (inactive)
6,COc1cccc(S(=O)(=O)N(C)C[C@H]2Oc3cc(C4=CCCCC4)ccc3S(=O)(=O)N([C@H](C)CO)C[C@H]2C)c1,-4.57% (inactive)
7,Cc1noc(C)c1S(=O)(=O)Nc1ccc2c(c1)C(=O)N([C@H](C)CO)C[C@@H](C)[C@@H](CN(C)Cc1ccc(C(F)(F)F)cc1)OCCCC[C@@H](C)O2,-10.4% (inactive)
8,C[C@H](NC(=O)C[C@H]1C[C@@H]2c3cc(NC(=O)c4cccnc4)ccc3O[C@@H]2[C@@H](CO)O1)c1ccccc1,-6.5% (inactive)
9,C[C@@H](NC(=O)C[C@H]1C=C[C@@H](NC(=O)Cc2ccccn2)[C@H](CO)O1)c1ccccc1,-2.87% (inactive)
10,CN(C)c1ccc2c(c1)[C@@H]1C[C@@H](CC(=O)NCc3ccc(Oc4ccccc4)cc3)O[C@H](CO)[C@@H]1O2,-4.49% (inactive)
11,CC(C)NC(=O)N1Cc2cc(C(=O)NC3Cc4ccccc4C3)nc(-c3cccc(-c4cccnc4)c3)c2[C@@H]1CCO,22.6% (inactive)
12,COc1ccccc1C#Cc1cnc2c(c1)C(=O)N([C@H](C)CO)C[C@H](C)[C@@H](CN(C)C(=O)c1ccc3c(c1)OCO3)O2,7.12% (inactive)
13,O=C(C[C@@H]1CC[C@H]2[C@@H](COC[C@H](O)CN2Cc2ccc(Oc3ccccc3)cc2)O1)N1CCc2ccccc2C1,-2.75% (inactive)
14,O=C(Nc1ccc(C(F)(F)F)cc1)Nc1ccc2c(c1)[C@@H]1C[C@H](CC(=O)N3CCc4ccccc4C3)O[C@H](CO)[C@@H]1O2,-11.3% (inactive)
15,COc1ccccc1C#Cc1ccc2c(c1)O[C@H](CN(C)Cc1cccnc1)[C@H](C)CN([C@@H](C)CO)S2(=O)=O,-0.213% (inactive)
16,O=C(C[C@H]1C[C@@H]2c3cc(NC(=O)c4ccc5c(c4)OCO5)ccc3O[C@@H]2[C@@H](CO)O1)NCc1ccc(Oc2ccccc2)cc1,-3.98% (inactive)
17,C[C@@H]1CN([C@H](C)CO)C(=O)c2c(c3ccccc3n2C)-c2ccccc2CO[C@H]1CN(C)C(=O)Nc1ccc(F)cc1,-13% (inactive)
18,Cc1noc(C)c1S(=O)(=O)Nc1ccc2c(c1)C(=O)N([C@@H](C)CO)C[C@@H](C)[C@H](CN(C)Cc1ccc(C(F)(F)F)cc1)OCCCC[C@@H](C)O2,-0.939% (inactive)
19,C[C@@H]1CN([C@H](C)CO)C(=O)Cc2cc(NC(=O)Cc3ccccc3)ccc2O[C@@H]1CN(C)Cc1ccc(C(F)(F)F)cc1,0.279% (inactive)
20,COc1ccc(-c2cccc(-c3nc(C(=O)NCC(F)(F)F)cc4c3[C@H](CCO)N([S@@](=O)C(C)(C)C)C4)c2)cc1,-10.9% (inactive)
21,N#C[C@H]1N[C@H](CO)[C@H]1c1ccc(C#Cc2ccccc2F)cc1,-10.8% (inactive)
22,COc1ccccc1C#Cc1ccc([C@H]2[C@H](C#N)N(C(=O)C3CC3)[C@H]2CO)cc1,2.46% (inactive)
23,C[C@H]1CN([C@@H](C)CO)C(=O)Cc2cc(NC(=O)Cc3ccccc3)ccc2O[C@@H]1CN(C)Cc1ccc(C(F)(F)F)cc1,12.4% (inactive)
24,C[C@@H](NC(=O)C[C@@H]1C=C[C@@H](NC(=O)Cc2ccccn2)[C@H](CO)O1)c1ccccc1,5.06% (inactive)
25,C[C@@H](NC(=O)C[C@H]1C=C[C@H](NC(=O)Cc2ccccn2)[C@H](CO)O1)c1ccccc1,-7.68% (inactive)
26,Cc1noc(C)c1S(=O)(=O)Nc1ccc2c(c1)C(=O)N([C@H](C)CO)C[C@@H](C)[C@H](CN(C)Cc1ccc(C(F)(F)F)cc1)OCCCC[C@@H](C)O2,-3.71% (inactive)
27,Cc1noc(C)c1S(=O)(=O)Nc1ccc2c(c1)C(=O)N([C@@H](C)CO)C[C@H](C)[C@@H](CN(C)Cc1ccc(C(F)(F)F)cc1)OCCCC[C@H](C)O2,4.59% (inactive)
28,O=C(C[C@H]1C[C@@H]2c3cc(NS(=O)(=O)c4ccc(F)cc4)ccc3O[C@@H]2[C@H](CO)O1)NC1CCCCC1,2.73% (inactive)
29,C[C@H](NC(=O)C[C@H]1C=C[C@@H](NC(=O)Cc2ccccn2)[C@@H](CO)O1)c1ccccc1,-1.38% (inactive)
